Test system: MV-4-11 cells
Assay: Gene expression microarray analysis (Affymetrix PrimeView) and GSEA
Assay type: cell-based, human
Set-up: RFU PODN (11730768_x_at) / Fold change /veh PODN (11730768_x_at) / RFU LINC00158 (11744669_a_at) / Fold change /veh LINC00158 (11744669_a_at) / RFU DUSP10 (11751237_a_at) / Fold change /veh DUSP10 (11751237_a_at) / RFU ID3 (11757404_x_at) / Fold change /veh ID3 (11757404_x_at) / RFU PLEKHG5 (11737974_s_at) / Fold change /veh PLEKHG5 (11737974_s_at) / RFU LRRC4B (11730491_at) / Fold change /veh LRRC4B (11730491_at) / RFU GIMAP4 (11747438_a_at) / Fold change /veh GIMAP4 (11747438_a_at) / RFU KRT8 (11758183_x_at) / Fold change /veh KRT8 (11758183_x_at) / RFU CNN1 (11734310_a_at) / Fold change /veh CNN1 (11734310_a_at) / RFU VPS37D (11726825_at) / Fold change /veh VPS37D (11726825_at) / RFU C10orf10 (11716522_x_at) / Fold change /veh C10orf10 (11716522_x_at) / RFU KIR2DL2 /// KIR2DL4 /// KIR2DL5A /// KIR2DL5B /// KIR2DS1 /// KIR2DS2 /// KIR2DS3 /// KIR2DS4 /// KIR3DL3 /// KIR3DL3 /// KIR3DS1 (11738374_at) / Fold change /veh KIR2DL2 /// KIR2DL4 /// KIR2DL5A /// KIR2DL5B /// KIR2DS1 /// KIR2DS2 /// KIR2DS3 /// KIR2DS4 /// KIR3DL3 /// KIR3DL3 /// KIR3DS1 (11738374_at) / RFU C1QL1 (11718748_at) / Fold change /veh C1QL1 (11718748_at) / RFU TMPRSS4 (11747572_a_at) / Fold change /veh TMPRSS4 (11747572_a_at) / RFU HAMP (11756126_x_at) / Fold change /veh HAMP (11756126_x_at) / RFU RNFT2 (11725882_a_at) / Fold change /veh RNFT2 (11725882_a_at) / RFU NR4A2 (11747474_a_at) / Fold change /veh NR4A2 (11747474_a_at) / RFU ABCC12 (11746883_a_at) / Fold change /veh ABCC12 (11746883_a_at) / RFU TMEM136 (11760407_x_at) / Fold change /veh TMEM136 (11760407_x_at) / RFU CLDN22 /// WWC2 (11732394_at) / Fold change /veh CLDN22 /// WWC2 (11732394_at) / RFU HLA-DPB1 (11760878_x_at) / Fold change /veh HLA-DPB1 (11760878_x_at) / RFU SPINT1 (11716480_a_at) / Fold change /veh SPINT1 (11716480_a_at) / RFU GAP43 (11754022_s_at) / Fold change /veh GAP43 (11754022_s_at) / RFU A4GNT (11735810_at) / Fold change /veh A4GNT (11735810_at) / RFU PRB3 (11715151_x_at) / Fold change /veh PRB3 (11715151_x_at) / RFU TUBB4B (11761932_at) / Fold change /veh TUBB4B (11761932_at) / RFU CAPN14 (11732068_a_at) / Fold change /veh CAPN14 (11732068_a_at) / RFU TMCC2 (11721928_a_at) / Fold change /veh TMCC2 (11721928_a_at) / RFU IRGQ (11745062_a_at) / Fold change /veh IRGQ (11745062_a_at) / RFU FAM174B (11720279_a_at) / Fold change /veh FAM174B (11720279_a_at) / RFU TMPRSS4 (11748680_a_at) / Fold change /veh TMPRSS4 (11748680_a_at) / RFU FAM212B (11763350_a_at) / Fold change /veh FAM212B (11763350_a_at) / RFU PLEKHG5 (11743358_a_at) / Fold change /veh PLEKHG5 (11743358_a_at) / RFU ZSCAN30 (11745921_a_at) / Fold change /veh ZSCAN30 (11745921_a_at) / RFU CMKLR1 (11741424_a_at) / Fold change /veh CMKLR1 (11741424_a_at) / RFU LOC101060620 /// MAPK8IP1 (11723275_at) / Fold change /veh LOC101060620 /// MAPK8IP1 (11723275_at) / RFU SPTSSB (11747773_x_at) / Fold change /veh SPTSSB (11747773_x_at) / RFU PRSS12 (11739890_at) / Fold change /veh PRSS12 (11739890_at) / RFU BIN1 (11741810_x_at) / Fold change /veh BIN1 (11741810_x_at) / RFU WNT11 (11732464_a_at) / Fold change /veh WNT11 (11732464_a_at) / RFU C10orf10 (11716521_a_at) / Fold change /veh C10orf10 (11716521_a_at) / RFU C5orf56 (11738089_at) / Fold change /veh C5orf56 (11738089_at) / RFU CYB561 (11721691_x_at) / Fold change /veh CYB561 (11721691_x_at) / RFU ANKRD19P (11752326_a_at) / Fold change /veh ANKRD19P (11752326_a_at) / RFU OR2T12 /// OR2T33 /// OR2T8 (11738714_s_at) / Fold change /veh OR2T12 /// OR2T33 /// OR2T8 (11738714_s_at) / RFU VCAN (11748164_a_at) / Fold change /veh VCAN (11748164_a_at) / RFU JSRP1 (11732532_at) / Fold change /veh JSRP1 (11732532_at) / RFU KRTAP10-11 (11738290_x_at) / Fold change /veh KRTAP10-11 (11738290_x_at) / RFU MYO3A (11730013_a_at) / Fold change /veh MYO3A (11730013_a_at) / RFU EBF3 (11725865_a_at) / Fold change /veh EBF3 (11725865_a_at) / RFU CAMK2N1 (11719241_x_at) / Fold change /veh CAMK2N1 (11719241_x_at) / RFU C5orf56 (11738088_a_at) / Fold change /veh C5orf56 (11738088_a_at) / RFU OLFML3 (11715873_a_at) / Fold change /veh OLFML3 (11715873_a_at) / RFU LOC100653217 /// NTM (11731650_a_at) / Fold change /veh LOC100653217 /// NTM (11731650_a_at) / RFU MAPK11 (11762145_a_at) / Fold change /veh MAPK11 (11762145_a_at) / RFU FIZ1 (11724087_x_at) / Fold change /veh FIZ1 (11724087_x_at) / RFU OASL (11726364_x_at) / Fold change /veh OASL (11726364_x_at) / RFU SOX15 (11748057_x_at) / Fold change /veh SOX15 (11748057_x_at) / RFU CD79A (11719716_a_at) / Fold change /veh CD79A (11719716_a_at) / RFU HIST1H1D (11736915_at) / Fold change /veh HIST1H1D (11736915_at) / RFU CASKIN2 (11723855_a_at) / Fold change /veh CASKIN2 (11723855_a_at) / RFU LOC730098 (11760151_x_at) / Fold change /veh LOC730098 (11760151_x_at) / RFU OR4N2 (11742367_at) / Fold change /veh OR4N2 (11742367_at) / RFU PRRT2 (11749266_a_at) / Fold change /veh PRRT2 (11749266_a_at) / RFU SNX32 (11753110_a_at) / Fold change /veh SNX32 (11753110_a_at) / RFU CDHR5 (11726645_a_at) / Fold change /veh CDHR5 (11726645_a_at) / RFU RCAN1 (11760418_a_at) / Fold change /veh RCAN1 (11760418_a_at) / RFU FAM167A (11723789_a_at) / Fold change /veh FAM167A (11723789_a_at) / RFU FAM26E (11764081_at) / Fold change /veh FAM26E (11764081_at) / RFU ISYNA1 (11749810_s_at) / Fold change /veh ISYNA1 (11749810_s_at) / RFU ACY1 (11761880_at) / Fold change /veh ACY1 (11761880_at) / RFU 11764098_at / Fold change /veh 11764098_at / RFU SAMD14 (11745864_x_at) / Fold change /veh SAMD14 (11745864_x_at) / RFU NPB (11741838_a_at) / Fold change /veh NPB (11741838_a_at) / RFU TMPRSS6 (11731388_a_at) / Fold change /veh TMPRSS6 (11731388_a_at) / RFU KRTAP10-2 (11738614_at) / Fold change /veh KRTAP10-2 (11738614_at) / RFU ARHGAP8 /// PRR5-ARHGAP8 (11727945_x_at) / Fold change /veh ARHGAP8 /// PRR5-ARHGAP8 (11727945_x_at) / RFU KRTAP5-7 /// NADSYN1 (11734609_at) / Fold change /veh KRTAP5-7 /// NADSYN1 (11734609_at) / RFU RASL12 (11751679_a_at) / Fold change /veh RASL12 (11751679_a_at) / RFU CDKN2B (11736163_a_at) / Fold change /veh CDKN2B (11736163_a_at) / RFU PRF1 (11729649_at) / Fold change /veh PRF1 (11729649_at) / RFU, ZNF638 /// ZNF638-IT1 / Fold change vs veh, ZNF638 /// ZNF638-IT1 / RFU, PANK3 / Fold change vs veh, PANK3 / RFU, SH3YL1 / Fold change vs veh, SH3YL1 / RFU, ZEB2 / Fold change vs veh, ZEB2 / RFU, NRIP1 / Fold change vs veh, NRIP1 / RFU, PTTG1IP / Fold change vs veh, PTTG1IP / RFU, CAPN2 / Fold change vs veh, CAPN2 / RFU, MED14 / Fold change vs veh, MED14 / RFU, SNORA58 / Fold change vs veh, SNORA58 / RFU, C1orf63 / Fold change vs veh, C1orf63 / RFU, LRRFIP1 / Fold change vs veh, LRRFIP1 / RFU, NDUFAF7 / Fold change vs veh, NDUFAF7 / RFU, SLC12A2 / Fold change vs veh, SLC12A2 / RFU, IBTK / Fold change vs veh, IBTK / RFU, ESF1 / Fold change vs veh, ESF1 / Fold change vs veh, TMEM50B / RFU, TAOK1 / Fold change vs veh, TAOK1 / RFU, ACBD3 / Fold change vs veh, ACBD3 / RFU, TMA16 / Fold change vs veh, TMA16 / RFU, RWDD3 / Fold change vs veh, RWDD3 / RFU, BCAT1 / Fold change vs veh, BCAT1 / RFU, EDEM3 / Fold change vs veh, EDEM3 / RFU, TMEM33 / Fold change vs veh, TMEM33 / RFU, WDR75 / Fold change vs veh, WDR75 / RFU, AHCTF1 / Fold change vs veh, AHCTF1 / RFU, TFRC / Fold change vs veh, TFRC / RFU, ZDHHC17 / Fold change vs veh, ZDHHC17 / RFU, NOM1 / Fold change vs veh, NOM1 / RFU, ARL8B / Fold change vs veh, ARL8B / RFU, ZBTB11 / Fold change vs veh, ZBTB11 / RFU, TAMM41 / Fold change vs veh, TAMM41 / RFU, KIAA1704 /// LOC100996395 / Fold change vs veh, KIAA1704 /// LOC100996395 / RFU, ING1 / Fold change vs veh, ING1 / RFU, TRMT61B / Fold change vs veh, TRMT61B / RFU, FUBP3 / Fold change vs veh, FUBP3 / RFU, TP53 / Fold change vs veh, TP53 / RFU, TNKS2 / Fold change vs veh, TNKS2 / RFU, ZFP14 / Fold change vs veh, ZFP14 / RFU, ACTR2 / Fold change vs veh, ACTR2 / RFU, PPP3R1 / Fold change vs veh, PPP3R1 / RFU, PIK3R1 / Fold change vs veh, PIK3R1 / RFU, HNRNPA1 / Fold change vs veh, HNRNPA1 / RFU, RNF170 / Fold change vs veh, RNF170 / RFU, ZNF28 / Fold change vs veh, ZNF28 / RFU, RNGTT / Fold change vs veh, RNGTT / RFU, OGT / Fold change vs veh, OGT / RFU, BRD1 / Fold change vs veh, BRD1 / RFU, MARS / Fold change vs veh, MARS / RFU, ZNF655 / Fold change vs veh, ZNF655 / RFU, FAHD1 / Fold change vs veh, FAHD1 / RFU, BDP1 / Fold change vs veh, BDP1 / RFU, LRRCC1 / Fold change vs veh, LRRCC1 / RFU, ARID1A / Fold change vs veh, ARID1A / RFU, ZNF146 / Fold change vs veh, ZNF146 / RFU, ZNF330 / Fold change vs veh, ZNF330 / RFU, GPN3 / Fold change vs veh, GPN3 / RFU, C9orf123 / Fold change vs veh, C9orf123 / RFU, N4BP2L2 / Fold change vs veh, N4BP2L2 / RFU, ARFIP1 / Fold change vs veh, ARFIP1 / RFU, FAM179B / Fold change vs veh, FAM179B / RFU, BCL10 / Fold change vs veh, BCL10 / RFU, UHRF1BP1L / Fold change vs veh, UHRF1BP1L / RFU, BET1 / Fold change vs veh, BET1 / RFU, CNOT2 / Fold change vs veh, CNOT2 / RFU, ZNF268 / Fold change vs veh, ZNF268 / Fold change vs veh, ZNF507 / RFU, DGCR2 / Fold change vs veh, DGCR2 / RFU, WDSUB1 / Fold change vs veh, WDSUB1 / Fold change vs veh, HSP90B1 /// MIR3652 / RFU, ADSS / Fold change vs veh, ADSS / RFU, GK / Fold change vs veh, GK / RFU, ZNF148 / Fold change vs veh, ZNF148 / RFU, TAF9 / Fold change vs veh, TAF9 / RFU, SLC1A5 / Fold change vs veh, SLC1A5 / RFU, SLMO2 / Fold change vs veh, SLMO2 / RFU, ABCC4 / Fold change vs veh, ABCC4 / RFU, LOC101060439 /// RAP1B / Fold change vs veh, LOC101060439 /// RAP1B / RFU, RFX7 / Fold change vs veh, RFX7 / RFU, GTPBP10 / Fold change vs veh, GTPBP10 / RFU, CNEP1R1 / Fold change vs veh, CNEP1R1 / RFU, BIVM-ERCC5 /// ERCC5 / Fold change vs veh, BIVM-ERCC5 /// ERCC5 / RFU, ILF3 / Fold change vs veh, ILF3 / RFU 11762660_at / Fold change /veh 11762660_at / RFU VCAN (11757783_s_at) / Fold change /veh VCAN (11757783_s_at) / RFU DDX43 (11728927_at) / Fold change /veh DDX43 (11728927_at) / RFU KRT8 (11758188_x_at) / Fold change /veh KRT8 (11758188_x_at) / RFU NKD1 (11759106_at) / Fold change /veh NKD1 (11759106_at) / RFU SRD5A1 (11742802_a_at) / Fold change /veh SRD5A1 (11742802_a_at) / RFU TPSAB1 /// TPSB2 (11721975_s_at) / Fold change /veh TPSAB1 /// TPSB2 (11721975_s_at) / RFU GSTM3 (11746129_a_at) / Fold change /veh GSTM3 (11746129_a_at) / RFU IL23R (11737362_x_at) / Fold change /veh IL23R (11737362_x_at) / RFU TMEM51 (11727254_a_at) / Fold change /veh TMEM51 (11727254_a_at) / RFU PIWIL2 (11732686_x_at) / Fold change /veh PIWIL2 (11732686_x_at) / RFU ORM1 (11744905_x_at) / Fold change /veh ORM1 (11744905_x_at) / RFU CCDC152 (11743942_at) / Fold change /veh CCDC152 (11743942_at) / RFU ECM1 (11717891_a_at) / Fold change /veh ECM1 (11717891_a_at) / RFU IL23R (11748794_a_at) / Fold change /veh IL23R (11748794_a_at) / RFU TNFAIP8L3 (11732012_x_at) / Fold change /veh TNFAIP8L3 (11732012_x_at) / RFU MBOAT4 (11741988_at) / Fold change /veh MBOAT4 (11741988_at) / RFU 11764193_at / Fold change /veh 11764193_at / RFU TMEM53 (11763286_at) / Fold change /veh TMEM53 (11763286_at) / RFU MAGEB2 (11727129_at) / Fold change /veh MAGEB2 (11727129_at) / RFU TMEM200A (11744735_a_at) / Fold change /veh TMEM200A (11744735_a_at) / RFU CCDC152 (11751479_a_at) / Fold change /veh CCDC152 (11751479_a_at) / RFU FAM211A (11726209_a_at) / Fold change /veh FAM211A (11726209_a_at) / RFU RGS16 (11746705_a_at) / Fold change /veh RGS16 (11746705_a_at) / RFU VCAN (11755009_s_at) / Fold change /veh VCAN (11755009_s_at) / RFU RHOB (11743442_s_at) / Fold change /veh RHOB (11743442_s_at) / RFU RGS16 (11720943_a_at) / Fold change /veh RGS16 (11720943_a_at) / RFU RGS16 (11720944_at) / Fold change /veh RGS16 (11720944_at) / RFU, VPS4B / Fold change vs veh, VPS4B / RFU, CREB1 / Fold change vs veh, CREB1 / RFU, DNAJC13 / Fold change vs veh, DNAJC13 / RFU, GNAQ / Fold change vs veh, GNAQ / RFU, CDK5R1 / Fold change vs veh, CDK5R1 / RFU, ZRANB3 / Fold change vs veh, ZRANB3 / RFU, CUL4A / Fold change vs veh, CUL4A / RFU, CCNY / Fold change vs veh, CCNY / RFU, UFL1 / Fold change vs veh, UFL1 / RFU, COG3 / Fold change vs veh, COG3 / RFU, DIAPH2 / Fold change vs veh, DIAPH2 / RFU, SKA2 / Fold change vs veh, SKA2 / RFU, AFF3 / Fold change vs veh, AFF3 / RFU, LMF1 / Fold change vs veh, LMF1 / RFU, IPO11 / Fold change vs veh, IPO11 / RFU, DFFB / Fold change vs veh, DFFB / RFU, FOXP1 / Fold change vs veh, FOXP1 / RFU, CARD8 / Fold change vs veh, CARD8 / RFU, STRN3 / Fold change vs veh, STRN3 / RFU, ADK / Fold change vs veh, ADK / RFU, RASSF2 / Fold change vs veh, RASSF2 / RFU, WIPF1 / Fold change vs veh, WIPF1 / RFU, LARP1B / Fold change vs veh, LARP1B / RFU, RASA1 / Fold change vs veh, RASA1 / RFU, RB1 / Fold change vs veh, RB1 / RFU, PPFIA1 / Fold change vs veh, PPFIA1 / RFU, MAT2A / Fold change vs veh, MAT2A / RFU, CCT5 / Fold change vs veh, CCT5 / RFU, WDR92 / Fold change vs veh, WDR92 / RFU, CUX1 / Fold change vs veh, CUX1 / RFU, TTC7A / Fold change vs veh, TTC7A / RFU, TMEM135 / Fold change vs veh, TMEM135 / RFU, DEPTOR / Fold change vs veh, DEPTOR / RFU, CPM / Fold change vs veh, CPM / RFU, DNAJB6 / Fold change vs veh, DNAJB6 / RFU, CACNA2D3 / Fold change vs veh, CACNA2D3 / RFU, DTX4 / Fold change vs veh, DTX4 / RFU, TFCP2 / Fold change vs veh, TFCP2 / RFU, GMCL1 /// GMCL1P1 / Fold change vs veh, GMCL1 /// GMCL1P1 / RFU, AEBP2 / Fold change vs veh, AEBP2 / RFU, SNHG1 /// SNORD22 /// SNORD25 /// SNORD26 /// SNORD27 /// SNORD28 /// SNORD29 /// SNORD31 / Fold change vs veh, SNHG1 /// SNORD22 /// SNORD25 /// SNORD26 /// SNORD27 /// SNORD28 /// SNORD29 /// SNORD31 / Fold change (Aza/veh), C12orf56 (ProbeSet 11735607_a_at) / Fold change (ACY-1035/veh), C12orf56 (ProbeSet 11735607_a_at) / Fold change (Aza/veh), FGFR1OP (ProbeSet 11751329_s_at) / Fold change (ACY-1035/veh), FGFR1OP (ProbeSet 11751329_s_at) / Fold change (Aza/veh), VPS36 (ProbeSet 11739960_a_at) / Fold change (ACY-1035/veh), VPS36 (ProbeSet 11739960_a_at) / RFU SYPL1 (11715823_x_at) / Fold change /veh SYPL1 (11715823_x_at) / RFU IGFBP7 (11715501_s_at) / Fold change /veh IGFBP7 (11715501_s_at) / RFU REEP3 (11722064_at) / Fold change /veh REEP3 (11722064_at) / RFU IGLL1 (11728026_x_at) / Fold change /veh IGLL1 (11728026_x_at): dose or concentration left out as unconfirmed
Settings: ProbeSet 11729173_a_at; LIST D

Nc1ncn([C@@H]2O[C@H](CO)[C@@H](O)[C@H]2O)c(=O)n1 [azacitidine]
RFU, SKA2: 326.42 RFU
